Measurements taken from patent US7563805B2, “Tri-, tetra-substituted-3-aminopyrrolidine derivative” (Daiichi Pharmaceutical Co., Ltd., priority 2005, dated 2009).
≈ marks a conversion by molar mass, not a printed value.

Legend:
[1] = test system: bone marrow cells (polychromatic erythrocytes); assay: mouse bone marrow micronucleus test; format: in vivo, Slc:ddY male mice; settings: single i.v. dose, 24 h, Example 2: 50, 100 mg/kg, Example 3: 100, 150 mg/kg, Example 9: 50, 100, 150 mg/kg
Description: The control was 0.1 mol/l NaOH/physiological saline solvent, and the positive control was cyclophosphamide (cyclophoshamide, CP) dissolved and diluted in physiological saline. All samples were sterilized by filtering through Milex GS filter (0.22 μm). Each solution was intravenously administered at a dose of 10 mL/kg in single dose at an administration rate of 0.2 mL/min.
Bone marrow cells were collected from thigh bone at 24 hours after the administration, and smear preparation was prepared. After staining with acridine orange, 1000 polychromatic erythrocytes per animal were observed under fluorescence microscope to count frequency of micrronucleated polychromatic erythrocyte and ratio of the orthochromatic erythrocytes to the polychromatic erythrocyte in 1000 erythrocytes.

[2] = potential convulsant activity upon intracisternal administration, with and without 4-biphenyl acetic acid (BPAA); settings: 5 μg/5 μL/mouse i. cist
Description: The potential convulsant activity upon intracisternal administration to mouse was also evaluated for the concomitant and administration with 4-biphenyl acetic acid (BPAA: an active metabolite of fenbufen) and in the absence of such concomitant administration. The evaluation was conducted by using 4 week old male Slc:ddY mice (6 animals per group) and intracisternally administering the test substance at a dose of 5 μg/5 μL/mouse (solvent, 0.5% lactic acid). Monitoring of the animals for the convulsion and death was started immediately after the administration and continued to 30 minutes after the administration. When used concomitantly with the BPAA, BPAA was suspended in 5% CMC, and 400 mg/kg was orally administered at a solution amount of 10 mL/kg, and the test substance was intracisternally administered 30 minutes after the BPAA.

S. marscecens, 10100 = assay: antibacterial activity (MIC), standard method of Japanese Society of Chemotherapy
[3] = rat, in vivo, po
Description: The Comparative compound was also evaluated by the same procedure.
The test substance was orally administered to fasted rats (7 week old male Crj:CD IGS rats purchased from Charles River Laboratories Japan, Inc.) at a dose of 5 mg/kg.
Animals of absorption test group (3 animals per group) were sacrificed by bleeding under etherization at 0.25, 0.5, 1, 2, 4, and 8 hours after the drug administration, and blood, lever, kidney, and lung were collected. The blood was centrifuged (3000 rpm×15 minutes, 4° C.) after coagulation to collect serum. Tissue was homogenized after adding 3 to 5 mL of 0.1 mol/l phosphate buffer (pH 7.0), and the supernatant was collected from the homogenate (3000 rpm×15 minutes, 4° C.).
Animals of excretion test group (3 animals per group) were placed in a metabolic cage, and the urine of 0 to 4 hours and 4 to 24 hours after the administration was collected in a water-cooled container. Simultaneously with the collection of the urine, the cage was also washed with about 15 mL of 0.1 mol/l phosphate buffer (pH 7.0) to collect the urine attached to the cage. For evaluation of conjugates such as glucuronide, the collected sample was also aliquoted and hydrolyzed with an equal amount of 1 mol/l aqueous solution of sodium hydroxide, and the hydrolysate was neutralized with 0.5 mol/l hydrochloric acid and measured for its concentration. The concentration was measured by LC-MS/MS method.
Pharmacokinetic parameters of the each drug in rat were calculated by from the time course of the average concentration by using pharmacokinetic analysis software PSAG-CP (AS Medica Inc.) in a manner not dependent on the model animal.

E. faecalis, ATCC 19433 = assay: antibacterial activity (MIC), standard method of Japanese Society of Chemotherapy; settings: E. faecalis
[4] = (with BPAA 400 mg/kg oral, 30 minutes before)
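Wherever Excretion rate in urine, times higher than Comparative compound 1 is given: fasted 7-week-old rats, three per group, tissue sampled up to 8 h post-dose and urine collected over 0–24 h, with conjugates measured after alkaline hydrolysis, concentrations by LC-MS/MS.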
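Wherever Recovery (%) in urine in relation to the amount administered, Recovery (%) including conjugate is given: fasted 7-week-old rats, three per group, tissue sampled up to 8 h post-dose and urine collected over 0–24 h, with conjugates measured after alkaline hydrolysis, concentrations by LC-MS/MS.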
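Wherever Tissue AUC0-8 h, Kidney is given: fasted 7-week-old rats, three per group, tissue sampled up to 8 h post-dose and urine collected over 0–24 h, with conjugates measured after alkaline hydrolysis, concentrations by LC-MS/MS.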
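Wherever serum concentration and tissue concentration, times higher than Comparative compound 1 is given: fasted 7-week-old rats, three per group, tissue sampled up to 8 h post-dose and urine collected over 0–24 h, with conjugates measured after alkaline hydrolysis, concentrations by LC-MS/MS.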

SMILES: COc1c(N2CC(C)(N)C3(CC3)C2)c(F)cc2c(=O)c(C(=O)O)cn([C@@H]3C[C@@H]3F)c12 (stereo partly drawn) [Example 9, 7-(7-Amino-7-methyl-5-azaspiro[2.4]heptan-5-yl)-6-fluoro-1-[(1R,2S)-2-fluorocyclopropyl]-8-methoxy-1,4-dihydro-4-oxoquinoline-3-carboxylic acid]
- micronucleus induction rate versus control, evaluation result [1]: negative
- Number of animals which showed convulsion [2, 4]: 0/6 (0/6)
- number of dead animals [2, 4]: 0/6 (0/6)
- Number of animals which showed convulsion ([2]; (without BPAA)): 0/6 (0/6)
- number of dead animals ([2]; (without BPAA)): 0/6 (0/6)
- MIC (S. marscecens, 10100): 0.1 µg/mL (≈ 0.238 µM)
- Excretion rate in urine, times higher than Comparative compound 1 ([3]; male, Crj:CD IGS): about 1.5 times
- serum concentration and tissue concentration, times higher than Comparative compound 1 ([3]; male, Crj:CD IGS): about 2 times
- Recovery (%) in urine in relation to the amount administered, Recovery (%) including conjugate ([3]; male, Crj:CD IGS, 5 mg/kg): 32.0%
- Tissue AUC0-8 h, Kidney ([3]; male, Crj:CD IGS, 5 mg/kg): 27800 ng·h/mL
- Tissue AUC0-8 h, Liver ([3]; male, Crj:CD IGS, 5 mg/kg): 32100 ng·h/mL
- Tissue AUC0-8 h, Lung ([3]; male, Crj:CD IGS, 5 mg/kg): 13700 ng·h/mL
- Tissue Cmax, Kidney ([3]; male, Crj:CD IGS, 5 mg/kg): 9.88 µg/g
- Tissue Cmax, Liver ([3]; male, Crj:CD IGS, 5 mg/kg): 13.7 µg/g
- Tissue Cmax, Lung ([3]; male, Crj:CD IGS, 5 mg/kg): 3.86 µg/g
- AUC value, times higher than Comparative compound 1 [3]: 1.5-2 times
- MIC (E. faecalis, ATCC 19433): 0.2 µg/mL (≈ 0.477 µM)
